Earlier results, collected in patent US20210379028A1, “TREATMENT OF DEPRESSIVE DISORDERS” (Ovid Therapeutics Inc., priority 2017, published 2021).

Tests used:
[1] = patients with a history of drug abuse who received gaboxadol
[2] = patients with severe major depressive disorder, combined with escitalopram
[3] = three-month efficacy study, treatment of insomnia

## Oc1noc2c1CCNC2 [gaboxadol, 4,5,6,7-tetrahydroisoxazolo [5,4-c] pyridine-3-ol]
[1]
  psychiatric adverse events: steep increase
[2]
  benefit of combining gaboxadol with escitalopram over escitalopram alone: no additional benefit
[3]
  effects in sleep onset and sleep maintenance: failed to show significant effects
